From patent US20110039721A1, “METHOD FOR PREDICTION ABOUT CARCINOGENICITY OF SUBSTANCE IN RODENT” (Chemicals Evaluation and Research Institute, priority 2007, published 2011)
Where two headings read alike, the source gives them in different places.

Tests used:
[1] = test system: mRNA expressed from the genes (A) to (D) in rat liver; assay: Behavior of genes (mRNA expression level, oligo-DNA microarray) in rat liver after 28-day oral administration; type: in vivo; details: for Behavior of gene caused by administration of chemical substance, Gene No. 4846 / Behavior of gene caused by administration of chemical substance, Gene No. 2026 / Behavior of gene caused by administration of chemical substance, Gene No. 4218 / Behavior of gene caused by administration of chemical substance, Gene No. 6182 / Behavior of gene caused by administration of chemical substance, Gene No. 5600: gene group (A); for Behavior of gene caused by administration of chemical substance, Gene No. 4846: Unigene No. Rn.144554; for Behavior of gene caused by administration of chemical substance, Gene No. 2026 / Behavior of gene caused by administration of chemical substance, Gene No. 4218: Unigene No. Rn.167075; for Behavior of gene caused by administration of chemical substance, Gene No. 6182: Unigene No. Rn.5834; for Behavior of gene caused by administration of chemical substance, Gene No. 5600: Unigene No. Rn.9836; for Behavior of gene caused by administration of chemical substance, Gene No. 1494 / Behavior of gene caused by administration of chemical substance, Gene No. 2045 / Behavior of gene caused by administration of chemical substance, Gene No. 2203: gene group (B); for Behavior of gene caused by administration of chemical substance, Gene No. 1494: Unigene No. Rn.1430; for Behavior of gene caused by administration of chemical substance, Gene No. 2045: Unigene No. Rn.19329; for Behavior of gene caused by administration of chemical substance, Gene No. 2203: Unigene No. Rn.21240; for Behavior of gene caused by administration of chemical substance, Gene No. 533 / Behavior of gene caused by administration of chemical substance, Gene No. 725 / Behavior of gene caused by administration of chemical substance, Gene No. 1163 / Behavior of gene caused by administration of chemical substance, Gene No. 4973 / Behavior of gene caused by administration of chemical substance, Gene No. 4095 / Behavior of gene caused by administration of chemical substance, Gene No. 1334 / Behavior of gene caused by administration of chemical substance, Gene No. 6620 / Behavior of gene caused by administration of chemical substance, Gene No. 6303 / Behavior of gene caused by administration of chemical substance, Gene No. 5878 / Behavior of gene caused by administration of chemical substance, Gene No. 1131 / Behavior of gene caused by administration of chemical substance, Gene No. 1562 / Behavior of gene caused by administration of chemical substance, Gene No. 1741 / Behavior of gene caused by administration of chemical substance, Gene No. 893 / Behavior of gene caused by administration of chemical substance, Gene No. 6026 / Behavior of gene caused by administration of chemical substance, Gene No. 154 / Behavior of gene caused by administration of chemical substance, Gene No. 1993 / Behavior of gene caused by administration of chemical substance, Gene No. 813 / Behavior of gene caused by administration of chemical substance, Gene No. 2494 / Behavior of gene caused by administration of chemical substance, Gene No. 2546 / Behavior of gene caused by administration of chemical substance, Gene No. 3776 / Behavior of gene caused by administration of chemical substance, Gene No. 3929 / Behavior of gene caused by administration of chemical substance, Gene No. 1119 / Behavior of gene caused by administration of chemical substance, Gene No. 6742 / Behavior of gene caused by administration of chemical substance, Gene No. 5634: gene group (C); for Behavior of gene caused by administration of chemical substance, Gene No. 533: Unigene No. Rn.106184; for Behavior of gene caused by administration of chemical substance, Gene No. 725: Unigene No. Rn.108075; for Behavior of gene caused by administration of chemical substance, Gene No. 1163: Unigene No. Rn.11766; for Behavior of gene caused by administration of chemical substance, Gene No. 4973: Unigene No. Rn.118529; for Behavior of gene caused by administration of chemical substance, Gene No. 4095: Unigene No. Rn.119024; for Behavior of gene caused by administration of chemical substance, Gene No. 1334 / Behavior of gene caused by administration of chemical substance, Gene No. 6620: Unigene No. Rn.120914; for Behavior of gene caused by administration of chemical substance, Gene No. 6303: Unigene No. Rn.123063; for Behavior of gene caused by administration of chemical substance, Gene No. 5878: Unigene No. Rn.143213; for Behavior of gene caused by administration of chemical substance, Gene No. 1131: Unigene No. Rn.144946; for Behavior of gene caused by administration of chemical substance, Gene No. 1562: Unigene No. Rn.14744; for Behavior of gene caused by administration of chemical substance, Gene No. 1741: Unigene No. Rn.1647; for Behavior of gene caused by administration of chemical substance, Gene No. 893: Unigene No. Rn.164817; for Behavior of gene caused by administration of chemical substance, Gene No. 6026: Unigene No. Rn.167685; for Behavior of gene caused by administration of chemical substance, Gene No. 154: Unigene No. Rn.185941; for Behavior of gene caused by administration of chemical substance, Gene No. 1993: Unigene No. Rn.18728; for Behavior of gene caused by administration of chemical substance, Gene No. 813: Unigene No. Rn.201760; for Behavior of gene caused by administration of chemical substance, Gene No. 2494: Unigene No. Rn.23969; for Behavior of gene caused by administration of chemical substance, Gene No. 2546: Unigene No. Rn.24561; for Behavior of gene caused by administration of chemical substance, Gene No. 3776: Unigene No. Rn.43232; for Behavior of gene caused by administration of chemical substance, Gene No. 3929: Unigene No. Rn.4620; for Behavior of gene caused by administration of chemical substance, Gene No. 1119: Unigene No. Rn.9757; for Behavior of gene caused by administration of chemical substance, Gene No. 6742: Unigene No. Rn.9779; for Behavior of gene caused by administration of chemical substance, Gene No. 5634: Unigene No. Rn.9862; for Behavior of gene caused by administration of chemical substance, Gene No. 5726: gene group (D), Unigene No. Rn.9939
Summary of the method: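 Groups of four male F344 SPF rats aged 5 weeks are gavaged once a day for 28 days with test chemical in solvent or with solvent alone at equal volume. Total RNA comes from liver taken on day 28. Fold change of 1.5 or 1/1.5 versus control, directionally consistent, defines significance.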

liver = details: cited from earlier work
[2] = classification of the substance (M+/M−); cited from earlier work
rodent = details: classification of the substance (C+/C−); cited from earlier work
[3] = classification of the substance (Cr+/Cr−)

Structure (SMILES) | Behavior of gene caused by administration of chemical substance, Gene No. 4846 [1] | Behavior of gene caused by administration of chemical substance, Gene No. 2026 [1] | Behavior of gene caused by administration of chemical substance, Gene No. 4218 [1] | Behavior of gene caused by administration of chemical substance, Gene No. 6182 [1] | Behavior of gene caused by administration of chemical substance, Gene No. 5600 [1] | Behavior of gene caused by administration of chemical substance, Gene No. 1494 [1] | Behavior of gene caused by administration of chemical substance, Gene No. 2045 [1] | Behavior of gene caused by administration of chemical substance, Gene No. 2203 [1] | Behavior of gene caused by administration of chemical substance, Gene No. 533 [1] | Behavior of gene caused by administration of chemical substance, Gene No. 725 [1] | Behavior of gene caused by administration of chemical substance, Gene No. 1163 [1] | Behavior of gene caused by administration of chemical substance, Gene No. 4973 [1] | Behavior of gene caused by administration of chemical substance, Gene No. 4095 [1] | Behavior of gene caused by administration of chemical substance, Gene No. 1334 [1] | Behavior of gene caused by administration of chemical substance, Gene No. 6620 [1] | Behavior of gene caused by administration of chemical substance, Gene No. 6303 [1] | Behavior of gene caused by administration of chemical substance, Gene No. 5878 [1] | Behavior of gene caused by administration of chemical substance, Gene No. 1131 [1] | Behavior of gene caused by administration of chemical substance, Gene No. 1562 [1] | Behavior of gene caused by administration of chemical substance, Gene No. 1741 [1] | also measured
Clc1ccc(C(c2ccc(Cl)cc2)C(Cl)(Cl)Cl)cc1 [TS016, Dichloro-diphenyl-trichloroethane] | − | − | − | + | − | + | + | + | + | − | − | − | + | − | − | − | − | − | − | + | Behavior of gene caused by administration of chemical substance, Gene No. 893 [1]: −; Behavior of gene caused by administration of chemical substance, Gene No. 6026 [1]: −; Behavior of gene caused by administration of chemical substance, Gene No. 154 [1]: −; Behavior of gene caused by administration of chemical substance, Gene No. 1993 [1]: −; Behavior of gene caused by administration of chemical substance, Gene No. 813 [1]: −; Behavior of gene caused by administration of chemical substance, Gene No. 2494 [1]: +; Behavior of gene caused by administration of chemical substance, Gene No. 2546 [1]: −; Behavior of gene caused by administration of chemical substance, Gene No. 3776 [1]: −; Behavior of gene caused by administration of chemical substance, Gene No. 3929 [1]: −; Behavior of gene caused by administration of chemical substance, Gene No. 1119 [1]: −; Behavior of gene caused by administration of chemical substance, Gene No. 6742 [1]: +; Behavior of gene caused by administration of chemical substance, Gene No. 5634 [1]: +; Behavior of gene caused by administration of chemical substance, Gene No. 5726 [1]: −; Liver carcinogenicity (liver; [3]): Cr+; Mutagenicity by Ames test [2]: M−; Carcinogenicity (rodent): C+
Nc1ccc([N+](=O)[O-])cc1N [TS035, 4-Nitro-o-phenylenediamine] | − | + | − | − | − | + | − | − | + | + | + | − | − | + | + | + | − | − | − | + | Behavior of gene caused by administration of chemical substance, Gene No. 893 [1]: −; Behavior of gene caused by administration of chemical substance, Gene No. 6026 [1]: −; Behavior of gene caused by administration of chemical substance, Gene No. 154 [1]: −; Behavior of gene caused by administration of chemical substance, Gene No. 1993 [1]: +; Behavior of gene caused by administration of chemical substance, Gene No. 813 [1]: +; Behavior of gene caused by administration of chemical substance, Gene No. 2494 [1]: −; Behavior of gene caused by administration of chemical substance, Gene No. 2546 [1]: +; Behavior of gene caused by administration of chemical substance, Gene No. 3776 [1]: −; Behavior of gene caused by administration of chemical substance, Gene No. 3929 [1]: −; Behavior of gene caused by administration of chemical substance, Gene No. 1119 [1]: −; Behavior of gene caused by administration of chemical substance, Gene No. 6742 [1]: −; Behavior of gene caused by administration of chemical substance, Gene No. 5634 [1]: +; Behavior of gene caused by administration of chemical substance, Gene No. 5726 [1]: −; Liver carcinogenicity (liver; in vivo): Cr−; Mutagenicity by Ames test [2]: M+; Carcinogenicity (rodent): C−
O=C([O-])c1ccccc1.[Na+] [TS084, Sodium benzoate] | − | − | − | + | − | + | − | − | + | − | − | + | − | − | − | − | − | − | − | − | Behavior of gene caused by administration of chemical substance, Gene No. 893 [1]: −; Behavior of gene caused by administration of chemical substance, Gene No. 6026 [1]: −; Behavior of gene caused by administration of chemical substance, Gene No. 154 [1]: −; Behavior of gene caused by administration of chemical substance, Gene No. 1993 [1]: −; Behavior of gene caused by administration of chemical substance, Gene No. 813 [1]: −; Behavior of gene caused by administration of chemical substance, Gene No. 2494 [1]: −; Behavior of gene caused by administration of chemical substance, Gene No. 2546 [1]: −; Behavior of gene caused by administration of chemical substance, Gene No. 3776 [1]: −; Behavior of gene caused by administration of chemical substance, Gene No. 3929 [1]: −; Behavior of gene caused by administration of chemical substance, Gene No. 1119 [1]: −; Behavior of gene caused by administration of chemical substance, Gene No. 6742 [1]: +; Behavior of gene caused by administration of chemical substance, Gene No. 5634 [1]: −; Behavior of gene caused by administration of chemical substance, Gene No. 5726 [1]: −; Liver carcinogenicity (liver; [3]): Cr−; Mutagenicity by Ames test [2]: M−; Carcinogenicity (rodent): C−
O=c1c(O)c(-c2ccc(O)c(O)c2)oc2cc(O)cc(O)c12 [TS037, Quercetin] | − | − | − | − | − | − | − | − | − | − | − | − | − | − | − | − | − | − | − | − | Behavior of gene caused by administration of chemical substance, Gene No. 893 [1]: −; Behavior of gene caused by administration of chemical substance, Gene No. 6026 [1]: −; Behavior of gene caused by administration of chemical substance, Gene No. 154 [1]: −; Behavior of gene caused by administration of chemical substance, Gene No. 1993 [1]: −; Behavior of gene caused by administration of chemical substance, Gene No. 813 [1]: −; Behavior of gene caused by administration of chemical substance, Gene No. 2494 [1]: −; Behavior of gene caused by administration of chemical substance, Gene No. 2546 [1]: −; Behavior of gene caused by administration of chemical substance, Gene No. 3776 [1]: −; Behavior of gene caused by administration of chemical substance, Gene No. 3929 [1]: −; Behavior of gene caused by administration of chemical substance, Gene No. 1119 [1]: −; Behavior of gene caused by administration of chemical substance, Gene No. 6742 [1]: −; Behavior of gene caused by administration of chemical substance, Gene No. 5634 [1]: −; Behavior of gene caused by administration of chemical substance, Gene No. 5726 [1]: −; Liver carcinogenicity (liver; [3]): Cr−; Mutagenicity by Ames test [2]: M+; Carcinogenicity (rodent): C−
